From patent US4555513A, “1,2 Dihydro- and 1,2,3,4-tetrahydro quinolylacetic acids and analgesic use thereof” (priority 1982, dated 1985)
Read-outs that look alike come from different tables or passages of the source.

Assays:
[1] = Acute toxicity (oral, mortality after 72 hours); details: mouse, in vivo
Procedure: Groups of 10 male dd mice weighing some 18 g were orally administered the examined drugs and the number of death p 72 hours later was recorded.

dd mice [2] = assay: Analgesic effects by a modified Haffner method; format: in vivo, mouse (dd mice); details: with morphine hydrochloride 2 mg/kg s.c.
Procedure: Group of 10 dd mice were orally administered the examined drugs and 30 minutes later 2 mg/kg of morphine hydrochloride, the threshold dose, was injected subcutaneously. At 15, 30, 45 and 60 minutes thereafter, the root of mouse's tail was squeezed with a Kocher's forceps.

dd mice [3] = assay: Analgesic effects by acetic acid writhing test; format: in vivo, mouse (male dd mice)
Procedure: 30 minutes after the examined drug was orally given, 0.1 ml/10 g of 0.6% acetic acid solution was intraperitoneally administered to group of 10 male dd mice weighing some 18 g. The number of stretching was calculted during an observation period of 15 to 20 minutes after acetic acid treatment. The average inhibition rate of stretching among 8 animals was regarded as the inhibition rate of the drug, excluding 2 animals showing maximum and minimum numbers of stretching.

[4] = 800 mg/kg oral, 72 hours, read-out: Mortality
[5] = 400 mg/kg oral, 72 hours, read-out: Mortality

Row | Compound | mortality at 72 h [1, 4] [%] | Analgesic effects (dd mice [2]; 100 mg/kg oral) [%] | Analgesic effects (dd mice [2]; 200 mg/kg oral) [%] | Analgesic effects (inhibition rate of stretching) (dd mice [3]; 50 mg/kg oral) [%] | Analgesic effects (inhibition rate of stretching) (dd mice [3]; 100 mg/kg oral) [%] | Analgesic effects (inhibition rate of stretching) (dd mice [3]; 150 mg/kg oral) [%] | mortality at 72 h [1, 5] [%] | mortality at 72 h ([1]; po, 600 mg/kg) [%]
1 | Cc1c(N(C)C)c(=O)n(-c2ccccc2)n1C [Aminopyrine, reference compound] | 100 | 30 | 35 | 14 | 47 | 60 | – | –
2 | CC(C(=O)O)c1cc(Cl)c2c(c1)C=CC(C)(C)N2 (stereo not drawn) [Compound 35, 2-(8-Chloro-1,2-dihydro-2,2-dimethylquinolin-6-yl)propionic acid] | 20 | 35 | 50 | 37 | 52 | 68 | 0 | –
3 | CC(C(=O)O)c1cc(Cl)c2c(c1)CCC(C)(C)N2 (stereo not drawn) [Compound 36, 2-(8-Chloro-1,2,3,4-tetrahydro-2,2-dimethylquinolin-6-yl)propionic acid] | 10 | 30 | 55 | 36 | 61 | 73 | 0 | –
4 | CCCCC1C(=O)N(c2ccccc2)N(c2ccccc2)C1=O [Phenylbutazone, reference compound] | – | – | – | – | – | – | – | 100
